# Measured values from ChEMBL document CHEMBL5226290, “Rational design of SphK inhibitors using crystal structures aided by computer” (Eur J Med Chem, 2021).
# Key:
# Sphingosine kinase 2 [1] = target: T1, Sphingosine kinase 2 (Homo sapiens, UniProt Q9NRA0); assay: Inhibition of SphK2 (unknown origin) assessed as inhibition constant
# T1 sequence (Q9NRA0 whole entry): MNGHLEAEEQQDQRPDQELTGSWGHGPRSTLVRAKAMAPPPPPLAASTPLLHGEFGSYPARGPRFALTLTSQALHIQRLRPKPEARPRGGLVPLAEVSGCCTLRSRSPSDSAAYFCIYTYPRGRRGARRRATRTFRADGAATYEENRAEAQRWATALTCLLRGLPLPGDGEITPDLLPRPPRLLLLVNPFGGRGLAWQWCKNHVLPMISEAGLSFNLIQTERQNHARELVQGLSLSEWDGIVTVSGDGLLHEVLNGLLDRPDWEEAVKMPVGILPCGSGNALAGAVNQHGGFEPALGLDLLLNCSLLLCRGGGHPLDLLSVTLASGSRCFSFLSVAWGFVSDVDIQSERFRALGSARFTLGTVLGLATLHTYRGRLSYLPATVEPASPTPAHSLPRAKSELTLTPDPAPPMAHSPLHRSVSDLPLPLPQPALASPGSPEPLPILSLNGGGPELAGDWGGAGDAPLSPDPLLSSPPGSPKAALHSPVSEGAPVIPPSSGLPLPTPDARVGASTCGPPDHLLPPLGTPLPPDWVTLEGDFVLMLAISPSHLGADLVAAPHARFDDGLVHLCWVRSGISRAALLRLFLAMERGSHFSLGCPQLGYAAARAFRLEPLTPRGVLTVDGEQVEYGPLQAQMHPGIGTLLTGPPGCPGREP
# Sphingosine kinase 1 [2] = target: T2, Sphingosine kinase 1 (Homo sapiens, UniProt Q9NYA1); assay: Inhibition of SphK1 (unknown origin) assessed as inhibition constant
# T2 sequence (Q9NYA1 whole entry, the tested form may be a part): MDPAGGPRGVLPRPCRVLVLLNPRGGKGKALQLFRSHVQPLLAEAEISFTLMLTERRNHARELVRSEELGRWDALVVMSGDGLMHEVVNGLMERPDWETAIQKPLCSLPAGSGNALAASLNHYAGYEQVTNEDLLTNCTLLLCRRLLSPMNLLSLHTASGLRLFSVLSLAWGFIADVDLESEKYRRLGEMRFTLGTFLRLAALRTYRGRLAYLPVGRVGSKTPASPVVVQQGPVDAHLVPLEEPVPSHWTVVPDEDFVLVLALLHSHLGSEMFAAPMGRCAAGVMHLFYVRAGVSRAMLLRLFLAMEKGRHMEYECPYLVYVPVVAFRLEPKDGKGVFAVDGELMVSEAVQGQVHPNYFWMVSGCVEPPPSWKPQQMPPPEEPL
# Sphingosine kinase 2 [3] = target: T1, Sphingosine kinase 2; assay: Inhibition of recombinant GST-tagged SphK2 (unknown origin) (1 to 618 residues) expressed in baculovirus using sphingosine as substrate incubated for 1 hr in presence of ATP by electrophoretic mobility shift assay
# Sphingosine kinase 1 [4] = target: T2, Sphingosine kinase 1; assay: Inhibition of recombinant GST-tagged SphK1 (unknown origin) (1 to 384 residues) expressed in baculovirus using sphingosine as substrate incubated for 1 hr in presence of ATP by electrophoretic mobility shift assay
# Sphingosine kinase 1 [5] = target: T2, Sphingosine kinase 1; assay: Inhibition of SphK1 (unknown origin)
# Sphingosine kinase 2 [6] = target: T1, Sphingosine kinase 2; assay: Inhibition of SphK2 (unknown origin)
# Sphingosine kinase 1 [7] = target: T2, Sphingosine kinase 1; assay: Inhibition of SphK1 (unknown origin) using ATP as substrate preincubated for 40 mins followed by substrate addition and measured after 5 mins by spectrophotometric analysis
# Sphingosine kinase 1 [8] = target: T2, Sphingosine kinase 1; assay: Inhibition of recombinant SphK1 (unknown origin) using NBD-sphingosine as substrate in presence of ATP by fluorescence plate reader analysis
# Sphingosine kinase 2 [9] = target: T1, Sphingosine kinase 2; assay: Inhibition of recombinant SphK2 (unknown origin) using NBD-sphingosine as substrate in presence of ATP by fluorescence plate reader analysis
# Sphingosine kinase 2 [10] = target: T1, Sphingosine kinase 2; assay: Inhibition of SphK2 (unknown origin) using ATP as substrate preincubated for 40 mins followed by substrate addition and measured after 5 mins by spectrophotometric analysis
# Sphingosine kinase 2 [11] = target: T3, Sphingosine kinase 2 (Mus musculus, UniProt Q9JIA7); assay: Inhibition of recombinant mouse SphK2 expressed in baculovirus infected Sf9 cells using D-erythro-sphingosine and [gamma-32P]ATP as substrate incubated for 30 mins by liquid scintillation counting analysis
# T3 sequence (Q9JIA7 whole entry): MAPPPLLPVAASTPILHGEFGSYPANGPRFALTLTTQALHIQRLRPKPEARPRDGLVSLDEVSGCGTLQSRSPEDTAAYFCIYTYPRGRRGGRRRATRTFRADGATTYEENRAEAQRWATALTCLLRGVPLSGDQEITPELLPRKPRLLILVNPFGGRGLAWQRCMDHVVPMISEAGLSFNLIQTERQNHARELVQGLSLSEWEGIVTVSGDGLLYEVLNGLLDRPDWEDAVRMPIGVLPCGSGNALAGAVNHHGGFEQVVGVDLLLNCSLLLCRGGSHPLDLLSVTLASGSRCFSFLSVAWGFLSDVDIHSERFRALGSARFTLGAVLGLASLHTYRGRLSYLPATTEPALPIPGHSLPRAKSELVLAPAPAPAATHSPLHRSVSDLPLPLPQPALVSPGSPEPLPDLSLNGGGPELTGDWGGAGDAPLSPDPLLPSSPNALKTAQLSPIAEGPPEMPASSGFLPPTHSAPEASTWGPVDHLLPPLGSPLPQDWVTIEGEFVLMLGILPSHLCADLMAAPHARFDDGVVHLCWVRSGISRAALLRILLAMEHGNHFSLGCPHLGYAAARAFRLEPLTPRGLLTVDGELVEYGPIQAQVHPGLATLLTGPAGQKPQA
# Sphingosine kinase 1 [12] = target: Sphingosine kinase 1 (Mus musculus, UniProt Q8CI15); assay: Inhibition of recombinant mouse SphK1 expressed in baculovirus infected Sf9 cells using D-erythro-sphingosine and [gamma-32P]ATP as substrate incubated for 30 mins by liquid scintillation counting analysis
# Chain of Sphingosine kinase 1 (Mus musculus, UniProt Q8CI15) (Q8CI15 whole entry): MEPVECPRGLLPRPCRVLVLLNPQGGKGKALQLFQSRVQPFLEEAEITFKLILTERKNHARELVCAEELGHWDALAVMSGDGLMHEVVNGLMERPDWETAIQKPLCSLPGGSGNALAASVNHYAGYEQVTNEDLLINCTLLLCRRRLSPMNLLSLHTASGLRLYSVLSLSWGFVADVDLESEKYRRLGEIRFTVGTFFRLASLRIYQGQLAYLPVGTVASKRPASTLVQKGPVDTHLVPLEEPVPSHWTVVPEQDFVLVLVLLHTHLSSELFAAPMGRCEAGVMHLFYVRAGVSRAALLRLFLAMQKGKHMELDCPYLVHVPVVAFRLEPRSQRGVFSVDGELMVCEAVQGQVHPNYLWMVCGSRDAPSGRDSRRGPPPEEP
smiles,measurement,setting,value
Oc1ccc(Nc2nc(-c3ccc(Cl)cc3)cs2)cc1,Ki,Sphingosine kinase 2 [1],8 µM
CC(=O)N(C1=C(Cl)C(=O)c2ccccc2C1=O)C1CCCCC1,Ki,Sphingosine kinase 1 [2],0.3 µM
CCCCCCCCCCCCCC[C@@H]1OC[C@@H](N)[C@@H]1O,IC50,Sphingosine kinase 2 [3],1.6 µM
same,IC50,Sphingosine kinase 1 [4],5.3 µM
CCCCCCCCCCCCCC[C@@H]1OC[C@H](N)[C@@H]1O,IC50,Sphingosine kinase 1 [5],4.6 µM
same,IC50,Sphingosine kinase 2 [6],6.6 µM
CCCCCCCCCCCCC/C=C/[C@H](O)[C@@H](CO)N(C)C,Ki,Sphingosine kinase 2 [1],12 µM
N[C@H]1CN[C@H](CCCCCCCCCCCOC2CCOCC2)[C@H]1O,IC50,Sphingosine kinase 1 [7],0.8 µM
COc1ccc2[nH]c(=O)c(/C=C/C(=O)c3ccc(Nc4nccc(-c5ccc6ccccc6c5)n4)cc3)cc2c1,IC50,Sphingosine kinase 1 [8],3.1 µM
CCCCCCCCCCCCC/C=C/C(O)C(CO)NC(=N)N (centres undefined),Ki,Sphingosine kinase 2 [1],0.3 µM
same,Ki,Sphingosine kinase 1 [2],0.04 µM
Brc1cc2c(c3ccccc13)N1OC(C2)CC1CCc1ccccc1 (centres undefined),IC50,Sphingosine kinase 1 [8],> 650 µM
same,IC50,Sphingosine kinase 2 [9],71 µM
CCCOCCCCCCCCCC[C@@H]1OC[C@@H](N)[C@@H]1O,IC50,Sphingosine kinase 1 [7],> 30 µM
same,IC50,Sphingosine kinase 2 [10],3.2 µM
"CCCCCCCCOc1ccc2cc(-c3noc(C4[C@@H](O)CCN4C(=N)N)n3)ccc2c1 (single isomer, unassigned)",Ki,Sphingosine kinase 2 [11],1 µM
same,Ki,Sphingosine kinase 1 [12],20 µM
CCCCCCCCCCCCCC[C@H]1OC[C@H](N)[C@@H]1O [2-EPI JASPINE B],IC50,Sphingosine kinase 1 [7],4.3 µM
same,IC50,Sphingosine kinase 2 [10],24.8 µM
